In PubChem BioAssay (NCI):
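These data come from cells grown in 96-well plates and exposed to compound for 48 hours at five concentrations. Abbreviation: GI50, concentration required for 50% inhibition of growth. Definition used: TGI = concentration required for complete inhibition of growth.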

Tests used:
Assay in all cases: NCI-60 cell line screen, 48 h
ACHN renal = test system: ACHN renal
CCRF-CEM leukemia = test system: CCRF-CEM leukemia
NCI-H226 lung = test system: NCI-H226 lung
MALME-3M melanoma = test system: MALME-3M melanoma
786-0 renal = test system: 786-0 renal
COLO 205 colon = test system: COLO 205 colon
HCC-2998 colon = test system: HCC-2998 colon
M14 melanoma = test system: M14 melanoma
HT29 colon = test system: HT29 colon
RXF 393 renal = test system: RXF 393 renal

SMILES	GI50 (ACHN renal) [nM]	GI50 (CCRF-CEM leukemia) [nM]	TGI (CCRF-CEM leukemia) [µM]	GI50 (NCI-H226 lung) [nM]	GI50 (MALME-3M melanoma) [nM]	TGI (MALME-3M melanoma) [µM]	GI50 (786-0 renal) [nM]	GI50 (COLO 205 colon) [nM]	TGI (COLO 205 colon) [µM]	GI50 (HCC-2998 colon) [µM]	TGI (HCC-2998 colon) [µM]	GI50 (M14 melanoma) [nM]	TGI (M14 melanoma) [µM]	GI50 (HT29 colon) [µM]	TGI (HT29 colon) [µM]	GI50 (RXF 393 renal) [nM]	TGI (ACHN renal) [µM]	TGI (NCI-H226 lung) [µM]	TGI (786-0 renal) [µM]	TGI (RXF 393 renal) [µM]
C(=N\Nc1ccccn1)/c1ccccn1	294	446	> 100	356	293	2.69	301	356	> 100	0.272	97.3	313	57.2	0.563	> 100	335	–	–	–	–
CN(C)CCCn1c2c(c3cnccc3c1=O)C(=O)c1ccccc1-2	145	318	2.87	388	287	1.05	361	269	3.66	0.777	2.6	391	2.41	0.242	11.3	396	3.63	2.85	13.6	2.05
N#CC(=S)Nc1cccc(Cl)c1	–	–	> 100	–	–	> 100	–	–	> 100	–	83.1	–	> 100	–	> 100	–	> 100	> 100	> 100	> 100
CCCCn1c2cc(OCc3cn(-c4ccc(Cl)cc4)nn3)ccc2c2ccnc(C)c21	5060	9270	> 33.3	5510	5980	14.5	5760	5760	14.4	9.58	30.4	5820	16.4	6.25	> 33.3	6500	10.3	14.1	11	19.8
[N-]=[N+]=NC(c1cn(C2CC(O)C(CO)O2)c(=O)[nH]c1=O)C(Br)I (stereo unspecified)	–	–	> 100	–	–	> 100	–	–	> 100	–	> 100	–	> 100	–	> 100	–	> 100	> 100	> 100	> 100
Cc1ccc(C(CN(C)C)C(=O)c2ccccc2)cc1 (stereo unspecified)	1630	442	10.6	2970	2740	8.89	2120	2200	4.91	6.62	20.2	1910	4.35	3.26	12.5	2560	3.18	20.9	4	7.52
CC1=C(/C=C/C(C)=C\C=C\C(C)=C\C(=O)Nc2ccc3c(c2)OCO3)C(C)(C)CCC1	89100	22600	> 100	> 100000	7930	> 100	40200	37800	> 100	3.97	36.5	> 100000	> 100	11.9	> 100	24000	> 100	> 100	> 100	> 100
C=C1[C@@H](C)[C@H]2[C@H](Cc3ccccc3)NC(=O)[C@]23OC(=O)/C=C/[C@H](O)CCC[C@@H](C)C/C=C/[C@H]3[C@@H]1O	–	–	57.4	–	–	> 89	–	–	> 100	–	> 100	–	> 100	–	> 100	–	> 57.4	23.4	> 100	27.9
Cc1ccccc1-c1c(N)nc(NC#N)nc1C(=O)Nc1ccccc1	–	–	> 100	–	–	> 100	–	–	> 100	–	> 100	–	> 100	–	> 100	–	> 100	> 100	> 100	> 100
